For 32 compounds, IC50 and inhibition results are on record in patent publication US7612211B2, “Benzimidazole TRPV1 inhibitors” (Janssen Pharmaceutica N.V., priority 2006, dated 2009).

The target in this assay is T1, hTRPV1 (Homo sapiens, UniProt Q8NER1).
T1 construct: expressed in transfected cells; host or cells: HEK293
Kind of assay: Human TRPV1 (hTRPV1) functional assay, FLIPR intracellular Ca2+, capsaicin challenge. The class given is cell-based. The settings on record: HEK293 cells expressing hTRPV1, capsaicin 0.030 μM challenge; for IC50: derived from a variety of test concentrations, read-out: IC50 value (symbol c); for inhibition at 0.2 µM: test concentration of 0.2 μm, read-out: percent inhibition (symbol b); for inhibition at 0.5 µM: test concentration of 0.5 μm, read-out: percent inhibition (symbol a). On the procedure: The functional activity of the test compounds was determined by measuring changes in intracellular calcium concentration using a Ca^++-sensitive fluorescent dye and FLIPR™ technology. Increases in Ca^++ concentration were readily detected upon challenge with capsaicin.
HEK293 cells expressing hTRPV1 were grown on poly-D-lysine coated 384 well black-walled plates (BD 354663) and 1 day later loaded with Calcium 3 Dye for 35 min at 37° C., 5% CO2 and then for 25 min at room temperature, and subsequently tested for agonist-induced increases in intracellular Ca^2+ levels using FLIPR™ technology. Cells were challenged with test compounds (at varying concentrations) and intracellular Ca^2+ was measured for 5 min prior to the addition of capsaicin to all wells to achieve a final concentration of 0.030 μM eliciting ˜80% maximal response.
EC50 or IC50 values were determined from concentration-response studies, which were generated using the average of quadruplicate wells for each data point. The symbol “a” represents percent inhibition obtained at a test concentration of 0.5 μm; the symbol “b” represents percent inhibition obtained at a test concentration of 0.2 μm; the symbol “c” represents an IC50 value (nM) derived from a variety of test concentrations. The term “NA” means that the result is not applicable for a particular compound.

T1 sequence (Q8NER1 whole entry): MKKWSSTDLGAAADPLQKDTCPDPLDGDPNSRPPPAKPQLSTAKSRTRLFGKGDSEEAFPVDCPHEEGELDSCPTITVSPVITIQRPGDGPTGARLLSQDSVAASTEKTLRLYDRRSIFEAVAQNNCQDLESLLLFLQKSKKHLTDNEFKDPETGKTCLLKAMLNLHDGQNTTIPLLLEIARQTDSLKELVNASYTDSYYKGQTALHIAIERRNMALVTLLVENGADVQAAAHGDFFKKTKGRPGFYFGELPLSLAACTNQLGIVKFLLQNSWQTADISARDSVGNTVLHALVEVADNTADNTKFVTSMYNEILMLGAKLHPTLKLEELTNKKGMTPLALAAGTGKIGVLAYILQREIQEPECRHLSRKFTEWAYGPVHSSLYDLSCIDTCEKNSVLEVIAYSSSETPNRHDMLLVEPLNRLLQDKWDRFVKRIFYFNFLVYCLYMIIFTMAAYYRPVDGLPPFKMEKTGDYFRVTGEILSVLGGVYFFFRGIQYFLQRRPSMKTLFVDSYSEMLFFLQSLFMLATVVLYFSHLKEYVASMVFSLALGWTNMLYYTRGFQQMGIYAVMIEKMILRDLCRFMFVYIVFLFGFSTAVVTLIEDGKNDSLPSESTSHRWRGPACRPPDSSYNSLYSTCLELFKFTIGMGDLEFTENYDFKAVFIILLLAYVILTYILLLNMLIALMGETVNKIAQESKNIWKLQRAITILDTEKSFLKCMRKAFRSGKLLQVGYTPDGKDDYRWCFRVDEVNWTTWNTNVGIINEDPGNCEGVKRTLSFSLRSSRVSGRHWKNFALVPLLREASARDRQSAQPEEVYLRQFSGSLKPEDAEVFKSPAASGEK

As to `CS(=O)(=O)c1ccccc1-c1ccc2[nH]c(COc3ccc(Br)cc3)nc2c1` [Cpd 61, 2-(4-bromo-phenoxymethyl)-5-(2-methanesulfonyl-phenyl)-1H-benzoimidazole], the IC50 is 66 nM and the inhibition at 0.2 µM came out at 77%. Take `Cc1ccccc1-c1ccc2[nH]c(COc3ccc(C(F)(F)F)cc3)nc2c1` [Cpd 107, 5-o-tolyl-2-(4-trifluoromethyl-phenoxymethyl)-1H-benzoimidazole]: the inhibition at 0.5 µM amounted to 16%. `CC(O)CNC(=O)c1ccccc1-c1ccc2[nH]c(COc3ccc(C(F)(F)F)cc3)nc2c1` (centres unmarked) [Cpd 154, N-(2-hydroxy-propyl)-2-[2-(4-trifluoromethyl-phenoxymethyl)-1H-benzoimidazol-5-yl]-benzamide]: the inhibition at 0.2 µM came to 68%. Consider `CS(=O)(=O)c1ccccc1-c1ccc2[nH]c(COc3cccc(C(F)(F)F)c3F)nc2c1` [Cpd 71, 2-(2-fluoro-3-trifluoromethyl-phenoxymethyl)-5-(2-methanesulfonyl-phenyl)-1H-benzoimidazole], for which the inhibition at 0.2 µM was found to be 43%. With `CC(=O)Nc1cccc(OCc2nc3cc(-c4ccccc4S(C)(=O)=O)ccc3[nH]2)c1` [Cpd 94, N-{3-[5-(2-methanesulfonyl-phenyl)-1H-benzoimidazol-2-ylmethoxy]-phenyl}-acetamide], the inhibition at 0.2 µM came to 1%.

`NS(=O)(=O)c1ccccc1-c1ccc2[nH]c(COc3ccc(F)c(Cl)c3)nc2c1` [Cpd 11, 2-[2-(3-chloro-4-fluoro-phenoxymethyl)-1H-benzoimidazol-5-yl]-benzenesulfonamide]: the IC50 was 38 nM. For `NS(=O)(=O)c1cc(C(F)(F)F)ccc1-c1ccc2[nH]c(COc3ccc(C(F)(F)F)cc3)nc2c1` [Cpd 133, 5-trifluoromethyl-2-[2-(4-trifluoromethyl-phenoxymethyl)-1H-benzoimidazol-5-yl]-benzenesulfonamide], the IC50 is 105 nM and the inhibition at 0.5 µM came to 92%. For `CS(=O)(=O)c1ccc(OCc2nc3cc(-c4ccccc4S(=O)(=O)CCO)ccc3[nH]2)cc1` [Cpd 162, 2-{2-[2-(4-methanesulfonyl-phenoxymethyl)-1H-benzoimidazol-5-yl]-benzenesulfonyl}-ethanol], the inhibition at 0.2 µM stood at 4%.

Consider `CNS(=O)(=O)c1ccccc1-c1ccc2[nH]c(C(F)(F)Oc3ccc(C(F)(F)F)cc3)nc2c1` [Cpd 140, 2-{2-[difluoro-(4-trifluoromethyl-phenoxy)-methyl]-1H-benzoimidazol-5-yl}-N-methyl-benzenesulfonamide], for which the IC50 was determined as 17 nM and the inhibition at 0.5 µM came out at 101%. As for `CS(=O)(=O)Nc1cccc(-c2ccc3[nH]c(COc4ccc(C(F)(F)F)cc4)nc3c2)c1` [Cpd 102, N-{3-[2-(4-trifluoromethyl-phenoxymethyl)-1H-benzoimidazol-5-yl]-phenyl}-methanesulfonamide], the inhibition at 0.5 µM amounted to 8%.

Consider `CS(=O)(=O)c1ccc(OCc2nc3cc(-c4ccccc4S(C)(=O)=O)ccc3[nH]2)cc1` [Cpd 85, 2-(4-methanesulfonyl-phenoxymethyl)-5-(2-methanesulfonyl-phenyl)-1H-benzoimidazole], for which the inhibition at 0.2 µM was found to be 12%. With `NS(=O)(=O)c1ccccc1-c1ccc2[nH]c(COc3ccc(Cl)cc3)nc2c1` [Cpd 7, 2-[2-(4-chloro-phenoxymethyl)-1H-benzoimidazol-5-yl]-benzenesulfonamide], the IC50 came out at 13 nM. For the compound `CCOc1ccc(OCc2nc3cc(-c4ccccc4S(C)(=O)=O)ccc3[nH]2)cc1` [Cpd 81, 2-(4-ethoxy-phenoxymethyl)-5-(2-methanesulfonyl-phenyl)-1H-benzoimidazole], the IC50 was found to be 85 nM and the inhibition at 0.2 µM turned out to be 96%. `CC(=O)Nc1cccc(-c2ccc3[nH]c(COc4ccc(C(F)(F)F)cc4)nc3c2)c1` [Cpd 114, N-{3-[2-(4-trifluoromethyl-phenoxymethyl)-1H-benzoimidazol-5-yl]-phenyl}-acetamide]: the inhibition at 0.5 µM worked out at 6%. Regarding `CS(=O)(=O)c1ccccc1-c1ccc2[nH]c(COc3ccc(Cl)c(Cl)c3)nc2c1` [Cpd 65, 2-(3,4-dichloro-phenoxymethyl)-5-(2-methanesulfonyl-phenyl)-1H-benzoimidazole], the IC50 was found to be 58 nM and the inhibition at 0.2 µM was determined as 91%.

Take `NS(=O)(=O)c1ccccc1-c1ccc2[nH]c(COc3ccc(Cl)c(Cl)c3)nc2c1` [Cpd 29, 2-[2-(3,4-dichloro-phenoxymethyl)-1H-benzoimidazol-5-yl]-benzenesulfonamide]: the IC50 stood at 22 nM and the inhibition at 0.5 µM was 98%.

Turning to `CS(=O)(=O)c1ccccc1-c1ccc2[nH]c(COc3cc(Cl)cc(Cl)c3)nc2c1` [Cpd 93, 2-(3,5-dichloro-phenoxymethyl)-5-(2-methanesulfonyl-phenyl)-1H-benzoimidazole], the inhibition at 0.2 µM is 11%. Consider `Nc1cccc(-c2ccc3[nH]c(COc4ccc(C(F)(F)F)cc4)nc3c2)c1` [Cpd 123, 3-[2-(4-trifluoromethyl-phenoxymethyl)-1H-benzoimidazol-5-yl]-phenylamine], for which the inhibition at 0.5 µM was found to be 7%. In the case of `Nc1ccccc1-c1ccc2[nH]c(COc3ccc(C(F)(F)F)cc3)nc2c1` [Cpd 122, 2-[2-(4-trifluoromethyl-phenoxymethyl)-1H-benzoimidazol-5-yl]-phenylamine], the inhibition at 0.5 µM was found to be 21%. On to `Oc1ccccc1-c1ccc2[nH]c(COc3ccc(C(F)(F)F)cc3)nc2c1` [Cpd 119, 2-[2-(4-trifluoromethyl-phenoxymethyl)-1H-benzoimidazol-5-yl]-phenol], for which the inhibition at 0.5 µM stood at 14%.

Consider `CS(=O)(=O)c1ccccc1-c1ccc2[nH]c(COc3ccc(F)c(F)c3)nc2c1` [Cpd 63, 2-(3,4-difluoro-phenoxymethyl)-5-(2-methanesulfonyl-phenyl)-1H-benzoimidazole], for which the inhibition at 0.2 µM turned out to be 37%. Turning to `Nc1ccc(-c2ccc3[nH]c(COc4ccc(C(F)(F)F)cc4)nc3c2)cc1` [Cpd 124, 4-[2-(4-trifluoromethyl-phenoxymethyl)-1H-benzoimidazol-5-yl]-phenylamine], the inhibition at 0.5 µM was 12%.

Regarding `CC(C)C(O)c1ccccc1-c1ccc2[nH]c(COc3ccc(C(F)(F)F)cc3)nc2c1` (centres unmarked) [Cpd 144, 2-methyl-1-{2-[2-(4-trifluoromethyl-phenoxymethyl)-1H-benzoimidazol-5-yl]-phenyl}-propan-1-ol], the IC50 came to 114 nM and the inhibition at 0.2 µM was found to be 82%.

In the case of `CS(=O)(=O)c1ccccc1-c1ccc2[nH]c(COc3ccccc3C(F)(F)F)nc2c1` [Cpd 74, 5-(2-methanesulfonyl-phenyl)-2-(2-trifluoromethyl-phenoxymethyl)-1H-benzoimidazole], the inhibition at 0.2 µM is 60%. Regarding `CS(=O)(=O)c1ccccc1-c1ccc2[nH]c(COc3ccc(F)c(C(F)(F)F)c3)nc2c1` [Cpd 72, 2-(4-fluoro-3-trifluoromethyl-phenoxymethyl)-5-(2-methanesulfonyl-phenyl)-1H-benzoimidazole], the IC50 stood at 30 nM and the inhibition at 0.2 µM amounted to 96%. In the same order, the values of `Cc1ccc(OCc2nc3cc(-c4ccccc4S(C)(=O)=O)ccc3[nH]2)cc1` [Cpd 76, 5-(2-methanesulfonyl-phenyl)-2-p-tolyloxymethyl-1H-benzoimidazole] are 31 nM and 96%. For the compound `CNS(=O)(=O)c1ccccc1-c1ccc2[nH]c(COc3ccc(S(=O)(=O)C(F)(F)F)cc3)nc2c1` [Cpd 20, N-methyl-2-[2-(4-trifluoromethanesulfonyl-phenoxymethyl)-1H-benzoimidazol-5-yl]-benzenesulfonamide], the IC50 was 20 nM and the inhibition at 0.5 µM was determined as 100%. Take `NS(=O)(=O)c1ccccc1-c1ccc2[nH]c(COc3ccc(F)cc3)nc2c1` [Cpd 5, 2-[2-(4-fluoro-phenoxymethyl)-1H-benzoimidazol-5-yl]-benzenesulfonamide]: the inhibition at 0.5 µM was 71%.

As for `NS(=O)(=O)c1ccccc1-c1ccc2[nH]c(COc3ccc(F)cc3F)nc2c1` [Cpd 9, 2-[2-(2,4-difluoro-phenoxymethyl)-1H-benzoimidazol-5-yl]-benzenesulfonamide], the IC50 stood at 110 nM. Take `CC(C)c1ccc(OCc2nc3cc(-c4ccccc4S(N)(=O)=O)ccc3[nH]2)cc1` [Cpd 28, 2-[2-(4-isopropyl-phenoxymethyl)-1H-benzoimidazol-5-yl]-benzenesulfonamide]: the IC50 amounted to 8.9 nM and the inhibition at 0.5 µM amounted to 98%. In the case of `CC(C)(O)C(=O)c1ccccc1-c1ccc2[nH]c(COc3ccc(C(F)(F)F)cc3)nc2c1` [Cpd 147, 2-hydroxy-2-methyl-1-{2-[2-(4-trifluoromethyl-phenoxymethyl)-1H-benzoimidazol-5-yl]-phenyl}-propan-1-one], the IC50 was 7 nM and the inhibition at 0.2 µM was found to be 98%. For the compound `COc1cccc(OCc2nc3cc(-c4ccccc4S(C)(=O)=O)ccc3[nH]2)c1` [Cpd 97, 5-(2-methanesulfonyl-phenyl)-2-(3-methoxy-phenoxymethyl)-1H-benzoimidazole], the inhibition at 0.2 µM was 42%.

As a reminder, the IC50 is the concentration needed to halve the response being measured. A word on the inhibition: it is the drop in the measured response relative to a control, in per cent.
